{"source": "patent US20110071100A1", "about": "“SULFOBETAINES FOR CANCER, OBESITY, MACULAR DEGENERATION, NEURODEGENERATIVE DISEASES” (TILTAN PHARMA LTD., priority 2008, published 2011)", "tested_on": "malignant (mammary carcinoma) tumor (EMT6/CTX)", "test": "Tumor growth of malignant (mammary carcinoma) tumor (EMT6/CTX) in a mouse experimental model", "assay_type": "in vivo, CB6F1 male mice", "conditions": "for effect on tumor growth, agent alone: i.p.; for inhibition of tumor growth, alone and in combination with Hamsa treatment (summary of experiments 1-4): SB-18 and CHAPS 40 mg/kg, SB-12 2.5 and 40 mg/kg", "experimental": "In order to determine the effect of SB-18, CHAPS, SB-12, SB-16-4 and SB-18-4 each alone and each in combination with 4 other agents (“Hamsa treatment”), on tumor growth of a malignant (mammary carcinoma) tumor (EMT6/CTX) in a mouse experimental model, six (6) experiments were carried out as described below:\nCB6F1 male mice (a cross between Balbc and C57bl) at age of 7-8 weeks were anesthetized with Ketamine:Xelazine in a 0.85:0.15 ratio respectively, and diluted 1:1 with double distilled water (DDW) and injected i.m. in volume of 50 uL.\n100 uL of EMT6/CTX cells 3.6×10^5 cells/mouse were injected subcutaneously (s.c.) to the anesthetized mice, after shaving their back (to enable accurate measurement of tumor-volume). The mice were divided into four groups, as outlined below, 6-8 animals in each group. The mice were marked with Picric acid on head (H), tail (T), head and tail (H&T), right leg (RL), left leg (LL), right and left legs (SY), back and blank and were individually monitored.\n“Hamsa treatment” as used herein consists of the following active ingredients in the following concentrations: • Cimetidine 60 mg/kg (Farchemia s.r.l. Italy). • Diclofenac 30 mg/kg (Unique Pharma India). • Cyclophosphamide (CTX) 60 mg/kg (Hisun China) • Sulfasalazine (SSZ) (Farchemia s.r.l. Italy)—50 mg/kg on days of cytotoxic treatment, i.e. on days when cyclophosphamide and diclofenac are administered; 150 mg/kg on days of non-cytotoxic treatment, i.e. on days when no cyclophosphamide and disclofenac are administered.\nThe preparation and administration protocol of the Hamsa treatment is outlined in Table 1:\nSB-12, CHAPS and SB-18 (HOPAX Chem. Mfg. Ltd Taiwan) were prepared separately as aqueous solutions, then mixed 1:1 with Vehicle or the cytotoxic or non-cytotoxic stage of the Hamsa treatment and twice the volume was injected i.p. Due to its lower solubility, SB-18 was dissolved by mild warming (˜45° C.) of its aqueous solution in the presence of 2% Solutol HS-15 (BASF-Germany). In groups that received SB-12, CHAPS or SB-18, this agent was injected daily. […]\nSB-16-4 was first dissolved in DDW containing 2% Solutol HS-15 with heating to 40° C. to 8 mg/mL concentration. The stock solution was diluted with non-cytotoxic and cytotoxic treatments in 1:1 ratio.\nSB-18-4 was first dissolved in DDW containing 4% Solutol HS-15 with heating to 40° C. to 8 mg/mL concentration. The stock solution was diluted with non-cytotoxic and cytotoxic treatments in 1:1 ratio\n• 1. 7 mice received vehicle (DDW+2% Solutol—BASF, Germany) • 2. 8 mice received Hamsa treatment • 3. 8 mice received Hamsa treatment in combination with SB-18 (40 mg/kg). • 4. 6 mice received SB-18 in vehicle (40 mg/kg)\n• 1. 7 mice received vehicle (DDW+2% Solutol—BASF, Germany) • 2. 8 mice received Hamsa treatment • 3. 7 mice received Hamsa treatment in combination with CHAPS (40 mg/kg). • 4. 7 mice received CHAPS in vehicle (40 mg/kg)\n• 1. 7 mice received vehicle (DDW+2% Solutol—BASF, Germany) • 2. 6 mice received Hamsa treatment. • 3. 7 mice received Hamsa treatment with SB-12 (2.5 mg/kg). • 4. 7 mice received SB-12 in vehicle (2.5 mg/kg)\n• 1. 7 mice received vehicle (DDW+2% Solutol—BASF, Germany) • 2. 7 mice received Hamsa treatment • 3. 7 mice received Hamsa treatment with SB-12 (40 mg/kg).\n• 1. 6 mice received vehicle (DDW+2% Solutol—BASF, Germany) • 2. 6 mice received Hamsa treatment • 3. 7 mice received Hamsa treatment in combination with SB-16-4 (40 mg/kg). • 4. 5 mice received SB-16-4 in vehicle (40 mg/kg)\n• 1. 7 mice received vehicle (DDW+2% Solutol—BASF, Germany) • 2. 8 mice received Hamsa treatment • 3. 7 mice received Hamsa treatment in combination with SB-18-4 (40 mg/kg). • 4. 7 mice received SB-18-4 in vehicle (40 mg/kg)\nFive (5) or six (6) days after inoculation, when the tumor is already palpable, the treatment was initiated by intraperitoneally (i.p.) injection of the indicated treatment, in a volume of 250 uL, once a day, every day, 6 days a week. […]", "key": {"[1]": {"conditions": "40 mg/kg i.p. daily + Hamsa treatment (cimetidine, sulfasalazine, diclofenac, cyclophosphamide)"}, "[2]": {"conditions": "40 mg/kg in vehicle, daily, s.c. EMT6/CTX tumor, tumor volume by caliper"}}}
{"smiles": "CC(CCC(=O)NCCC[N+](C)(C)CCCS(=O)(=O)[O-])C1CCC2C3C(O)CC4CC(O)CCC4(C)C3CC(O)C12C", "note": "(centres unmarked) [CHAPS, 3-[3-(Cholamidopropyl)dimethylamonio]-1-propanesulfonate]", "values": [{"measurement": "effect on tumor growth in combination with Hamsa treatment", "setting": "[1]", "result": "has a synergistic effect"}, {"measurement": "effect on tumor growth, agent alone", "setting": "[2]", "result": "has an anti-tumor effect"}, {"measurement": "inhibition of tumor growth, alone and in combination with Hamsa treatment (summary of experiments 1-4)", "result": "inhibited tumor growth"}]}
{"smiles": "CCCCCCCCCCCCCCCCCC[N+](C)(C)CCCS(=O)(=O)[O-]", "note": "[SB-18, N-Octadecyl-N,N-Dimethyl-3-Ammonio-1-Propane Sulfonate]", "values": [{"measurement": "effect on tumor growth in combination with Hamsa treatment", "setting": "[1]", "result": "has a synergistic effect"}, {"measurement": "effect on tumor growth, agent alone", "setting": "[2]", "result": "has an anti-tumor effect"}, {"measurement": "inhibition of tumor growth, alone and in combination with Hamsa treatment (summary of experiments 1-4)", "result": "inhibited tumor growth"}]}
{"smiles": "CCCCCCCCCCCCCCCCCC[N+](C)(C)CCCCS(=O)(=O)[O-]", "note": "[SB-18-4, N,N-Dimethyloctadecyl-ammonium-1-(4-butylsulfonate)]", "values": [{"measurement": "effect on tumor growth in combination with Hamsa treatment", "setting": "[1]", "result": "has a synergistic effect"}, {"measurement": "effect on tumor growth, agent alone", "setting": "[2]", "result": "has an anti-tumor effect"}]}
{"smiles": "CCCCCCCCCCCC[N+](C)(C)CCCS(=O)(=O)[O-]", "note": "[SB-12, N-Dodecyl-N,N-Dimethyl-3-Ammonio-1-Propane Sulfonate, reference compound]", "values": [{"measurement": "effect on tumor growth in combination with Hamsa treatment", "setting": "2.5 mg/kg i.p. daily + Hamsa treatment (low dose)", "result": "slightly compromises the anti-tumor effect of the Hamsa treatment"}, {"measurement": "effect on tumor growth, agent alone", "setting": "2.5 mg/kg in vehicle, daily (low dose)", "result": "does not inhibit tumor growth, but rather enhances tumor-growth"}, {"measurement": "effect on tumor growth in combination with Hamsa treatment", "setting": "[1]", "result": "compromises the anti-tumor effect of Hamsa treatment"}, {"measurement": "inhibition of tumor growth, alone and in combination with Hamsa treatment (summary of experiments 1-4)", "result": "did not"}]}
{"smiles": "CCCCCCCCCCCCCCCC[N+](C)(C)CCCCS(=O)(=O)[O-]", "note": "[SB-16-4, N,N-Dimethylhexadecyl-ammonium-1-(4-butylsulfonate)]", "values": [{"measurement": "effect on tumor growth in combination with Hamsa treatment", "setting": "[1]", "result": "has a synergistic effect"}, {"measurement": "effect on tumor growth, agent alone", "setting": "[2]", "result": "has an anti-tumor effect"}]}
